Reference: paper PMC11707430, “Novel antibiotics against Staphylococcus aureus without detectable resistance by targeting proton motive force and FtsH” (MedComm, 2025)
Read-outs that look alike come from different tables or passages of the source.

Legend:
[1] = Plasma protein binding rate; assay type: in vitro ADME; conditions: human plasma
Protocol: Plasma protein binding rate calculation. Human plasma was purchased from IPHASE (Beijing, China). C218-0546 or STK848198 was added into human plasma to a final concentration of 0.5, 2 and 5 μg/mL, respectively. Warfarin sodium and PBS was used as positive control and blank control, respectively. The samples were added to the upper side of the dialysis membrane (IPHASE, Beijing, China) and PBS was added to its lower side. After incubation at room temperature for 12h, the concentration of C218-0546 and STK848198 at the both sides were detected by the LC-MS. The plasma protein binding rate (%) was calculated as: (1-Cf/Cp) × 100%. Cf, concentration of free compounds (lower side). Cp, plasma protein binding compounds (upper side).

Human RBCs = test: Red blood cell (RBC) lysis assay; assay type: cell-based; conditions: 1 h
Protocol: Red blood cell (RBC) lysis assay. Human RBCs (Hemo Pharmaceutical and Biological Co.) were suspended in 1× PBS and diluted to a final concentration of 4% (vol/vol). The RBCs suspension was then incubated with serially diluted compounds at 37°C for 1h. Then, the supernatant was collected by centrifugation and the absorbance at 570 nm […]) was measured. Triton X-100 (0.1%, vol/vol) and DMSO (1%, vol/vol) were served as positive and negative controls, respectively^16.

[2] = Pharmacokinetics determination; assay type: in vivo; design: bioavailability / Vd / clearance / AUC(0-t) / AUC(0-inf) / MRT last / MRT inf: dose or concentration left out as unconfirmed; conditions: female, ICR, mouse, plasma, mice; for MRT last: read-out: MRT(0-t); for MRT inf: read-out: MRT(0-∞)
Protocol: Pharmacokinetics determination. […] Blood samples were extracted from the jugular vein at intervals of 0.083, 0.25, 0.5, 1, 2, 4, 8, and 24h post-treatment, respectively. The plasma was separated following centrifugation at 6800 × g for 6 min. Concentrations of these compounds in the plasma were quantified by using the LC-MS/MS-04 instrument (TQ4000, JEOL, Japan), and pharmacokinetic parameters were calculated by using Phoenix WinNonlin 7.0 software (Certara, Princeton, NJ, USA)^37.

HSF = test: Cytotoxicity by CCK-8; assay type: cell-based, human
Protocol: Cytotoxicity assessment by Cell Counting Kit-8 (CCK-8). The CCK-8 (DojinDo, Japan) was used to detect the cytotoxicity of compounds on human cell lines (LO2, HepG2, and HSF). Briefly, log phased cells were diluted with its optimal medium to ~4000 cells/well in a 96-well plate. After incubation at 37 ℃ with 5% CO2 for 24h, the unadhered cells were removed by PBS washing, and serially diluted compounds were added to each well for 24h incubation at 37 ℃ with 5% CO2. Then, 10 µL of CCK-8 was added to each well and the absorbance at 450 nm (A450nm) was recorded after 3 h of incubation^17.

FtsH = FtsH (Staphylococcus aureus, UniProt Q2G0R0); test: Surface plasmon resonance (SPR); assay type: binding, S. aureus ATCC 43300; conditions: 25 °C
Protocol: Surface plasmon resonance (SPR). To detect the affinity between the small molecular compounds and FtsH, SPR analyses were performed on a multiple flow cell Biacore T200 instrument (Cytiva, the United States). Briefly, FtsH (35.5 µg/mL in 10 mM sodium acetate buffer, pH= 4.0) was covalently immobilized on a dextran matrix CM5 sensor chip surface in three different flow cells. The excessive active groups on the dextran matrix were blocked using 1 M ethanolamine at the velocity of 10 μL/min for 15 min. The uncoated reference flow cell on the fourth flow cell was prepared on the dextran matrix treated as described above but without any ligand. 1×PBS (pH 7.4) containing 2 mM KH2PO4, 137 mM NaCl, 10 mM Na2HPO4, 2.7 mM KCl and 5%DMSO was used as the running buffer. In the running buffer, a 2-fold serially diluted of compounds was passed over the ligand at a flow rate of 30 µL/min. The sensorgrams were recorded at 25 °C. The response units at the steady state were fitted to the Langmuir equation to yield the Kd values^35.
Protein synthesis and purification. The primers in this study were designed according to the sequence of S. aureus ATCC 43300 genome published on NCBI. […] Finally, the target protein was detected by SDS-PAGE. […]

Chain of FtsH (Q2G0R0 entry or part of it): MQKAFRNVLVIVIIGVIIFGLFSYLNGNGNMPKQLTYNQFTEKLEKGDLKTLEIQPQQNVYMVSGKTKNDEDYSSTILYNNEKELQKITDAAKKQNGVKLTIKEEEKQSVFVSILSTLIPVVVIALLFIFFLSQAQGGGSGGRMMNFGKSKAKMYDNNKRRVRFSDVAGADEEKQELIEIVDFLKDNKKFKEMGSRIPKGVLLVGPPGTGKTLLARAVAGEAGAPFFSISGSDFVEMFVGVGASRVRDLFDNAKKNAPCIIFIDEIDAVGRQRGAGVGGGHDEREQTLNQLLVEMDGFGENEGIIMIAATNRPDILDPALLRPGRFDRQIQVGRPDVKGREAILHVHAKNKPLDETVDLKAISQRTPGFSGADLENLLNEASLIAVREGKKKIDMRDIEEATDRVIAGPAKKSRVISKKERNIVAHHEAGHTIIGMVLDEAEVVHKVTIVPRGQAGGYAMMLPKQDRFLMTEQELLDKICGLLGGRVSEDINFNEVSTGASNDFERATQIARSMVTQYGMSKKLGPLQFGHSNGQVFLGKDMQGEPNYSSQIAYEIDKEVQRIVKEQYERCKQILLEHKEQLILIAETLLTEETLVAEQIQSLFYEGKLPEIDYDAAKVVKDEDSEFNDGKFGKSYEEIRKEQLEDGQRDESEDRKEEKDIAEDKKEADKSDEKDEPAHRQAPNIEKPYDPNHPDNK

Q: For `Cc1nc2c(-c3ccc(Cl)cc3)cnn2c(O)c1Cc1ccccc1` [STK848198], which “plasma protein binding rate” value [1] is on record?
A: high

Q: What about the hemolysis activity (Human RBCs) of the same molecule?
A: No hemolysis activity

Q: And the AUC(0-inf) ([2]; ip)?
A: 38300 ± 7020 ng·h/mL

Q: And the AUC(0-t) ([2]; ip)?
A: 38300 ± 7020 ng·h/mL

Q: And the Cmax ([2]; ip)?
A: 39000 ± 5470 ng/mL

Q: And the bioavailability ([2]; ip)?
A: 87%

Q: And the MRT last ([2]; ip, i.p.)?
A: 1.02 ± 0.16 h

Q: And the MRT inf ([2]; ip, i.p.)?
A: 1.17 ± 0.21 h

Q: And the half-life ([2]; ip, i.p., read-out: T1/2 (converted))?
A: 3.15 ± 2.38 h

Q: What about the Tmax ([2]; ip, i.p., read-out: Tmax) of the same molecule?
A: 0.33 ± 0.14 h

Q: What about the AUC(0-inf) ([2]; iv) of the same molecule?
A: 22400 ± 1990 ng·h/mL

Q: What about the AUC(0-t) ([2]; iv) of the same molecule?
A: 22000 ± 1960 ng·h/mL

Q: What about the C0 ([2]; iv) of the same molecule?
A: 51900 ± 1010 ng/mL

Q: What about the Cmax ([2]; iv) of the same molecule?
A: 40100 ± 2180 ng/mL

Q: What about the clearance ([2]; iv) of the same molecule?
A: 7.48 ± 0.69 mL/min/kg

Q: And the MRT last ([2]; iv, i.v.)?
A: 0.67 ± 0.1 h

Q: What about the MRT inf ([2]; iv, i.v.) of the same molecule?
A: 0.86 ± 0.05 h

Q: What about the half-life ([2]; iv, i.v., read-out: T1/2 (converted)) of the same molecule?
A: 2.54 ± 0.7 h

Q: And the Tmax ([2]; iv, i.v., read-out: Tmax)?
A: 0.08 h

Q: And the Vd ([2]; iv, i.v., read-out: Vss)?
A: 0.38 ± 0.02 L/kg

Q: What about the Vd ([2]; iv, i.v., read-out: Vz) of the same molecule?
A: 1.66 ± 0.57 L/kg

Q: And the Tmax ([2]; other: range over s.c., i.v., i.p. and p.o., 30 mg/kg, all the administration routes, read-out: T max (range))?
A: 0.08 to 0.33 h

Q: And the half-life ([2]; other: range over s.c., i.v., i.p. and p.o., 30 mg/kg, all the administration routes, read-out: half-life (range))?
A: 2.54 to 7.65 h

Q: And the AUC(0-inf) ([2]; po)?
A: 17800 ± 10500 ng·h/mL

Q: And the AUC(0-t) ([2]; po)?
A: 17800 ± 10500 ng·h/mL

Q: What about the Cmax ([2]; po) of the same molecule?
A: 18700 ± 3430 ng/mL

Q: What about the bioavailability ([2]; po) of the same molecule?
A: 40.4%

Q: What about the MRT last ([2]; po, p.o.) of the same molecule?
A: 1.62 ± 0.75 h

Q: What about the MRT inf ([2]; po, p.o.) of the same molecule?
A: 2.21 ± 0.79 h

Q: What about the half-life ([2]; po, p.o., read-out: T1/2 (converted)) of the same molecule?
A: 3.43 ± 1.53 h

Q: And the Tmax ([2]; po, p.o., read-out: Tmax)?
A: 0.25 h

Q: What about the AUC(0-inf) ([2]; sc) of the same molecule?
A: 18000 ± 3640 ng·h/mL

Q: And the AUC(0-t) ([2]; sc)?
A: 18000 ± 3640 ng·h/mL

Q: What about the Cmax ([2]; sc) of the same molecule?
A: 11600 ± 6890 ng/mL

Q: What about the bioavailability ([2]; sc) of the same molecule?
A: 40.9%

Q: And the MRT last ([2]; sc, s.c.)?
A: 3.5 ± 1.22 h

Q: What about the MRT inf ([2]; sc, s.c.) of the same molecule?
A: 5.19 ± 2.09 h

Q: And the half-life ([2]; sc, s.c., read-out: T1/2 (converted))?
A: 7.65 ± 1.16 h

Q: What about the Tmax ([2]; sc, s.c., read-out: Tmax) of the same molecule?
A: 0.33 ± 0.14 h

Q: And the cytotoxicity (HSF)?
A: no toxicity

Q: And the Kd (FtsH)?
A: 31 µM
